US11248018B2, “Process for preparation of nicotinamide riboside (NR) and cosmetic composition comprising (NR and a phosphate-binding agent” (YISSUM RESEARCH DEVELOPMENT COMPANY OF THE HEBREW …, priority 2016, dated 2022)

Assays:
Format in all cases: physicochemical
[1] = One-stage hydrolysis of NAD^+ with ZrCl4 and calcium L-ascorbate in water at 80° C. (Example 2), concentrations over time; conditions: for Relative Concentration: Example 2, ZrCl4 + calcium L-ascorbate, 80° C.
Protocol: NMR spectra were recorded with 400 MHz Bruker spectrometer. Reversed phase HPLC column of RP-18 type (Chromolith performance RP18e (100-4.6 mm) UM8 086/001, Merck KGaA) using deionized HPLC-grade solvents in the following composition: 1% acetonitrile, 99% water. Flow rate was 0.1 mL/min, detection performed with UV detector at 260 nm. Mass Spectrometry (MS), 6200 series TOF/6500 series Q-TOF B.05.01 (B5125.1).
In a 250-ml flask, a mixture of NAD^+ (0.33 gr), ZrCl4 (0.58 gr) and 1.80 gr of calcium L-ascorbate in 100 ml of deionized water was heated to 80° C. for 2 days. Over this time period, full conversion of the NAD^+ was observed by HPLC. Decomposition of the desired NR product was also observed under these conditions, but to a lower extent in comparison with the process of Example 1. HR-MS spectrum of the product is MW of 255.10. The extent of the decomposition of the desired NR was determined by comparing the abundance of the desired peak to the abundance of the internal standard.

[2] = Hydrolysis of NAD^+ with phosphate binding agent (calcium L-ascorbate) alone in water at 80° C. (Example 3), concentrations over time; conditions: for Relative Concentration: Example 3, calcium L-ascorbate alone, 80° C.
Protocol: In a 250-ml flask, a mixture of NAD^+ (0.34 gr) and 1.8 gr of calcium L-ascorbate in 100 ml of deionized water was heated to 80° C. for 4 days. The mixture was analyzed every 3 hours using HPLC and ^31P-NMR.
The rate of the tertiary hydrolysis (decomposition of the NR) is slower. Under these conditions, the concentration of the NR remains essentially stable (˜10% decline) over 24 hours (steady-state). The concentration was determined by comparing the abundance of the desired peak to the abundance of the internal standard MS and ^1H- and ^31P-NMR (intensity of the signal). After this time the concentration of the NR decreased and the product was no longer present.

[3] = Stability of commercial NR product under hydrolytic conditions in deionized water, followed by NMR
Protocol: Additionally, to establish the stability of the commercial NR product (Niagen® purchased from ChromaDex) under hydrolytic conditions, it was dissolved in deionized water as described herein and the mixture was analyzed every 3 hours using ^1H- and ^31P-NMR.

Relative Concentration ([1]; time 0 hours) | Relative Concentration ([1]; time 0.5 hours) | Relative Concentration ([1]; time 6 hours) | Relative Concentration ([1]; time 16 hours) | Relative Concentration ([1]; time 24 hours) | Relative Concentration ([2]; time 0 hours) | Relative Concentration ([2]; time 0.5 hours) | Relative Concentration ([2]; time 6 hours) | Relative Concentration ([2]; time 16 hours) | Relative Concentration ([2]; time 24 hours) | Relative Concentration ([2]; time 36 hours) | Relative Concentration ([2]; time 48 hours) | Compound | other results
0 | 0.1 | 0.19 | 0.32 | 0.48 | 0 | 0.1 | 0.16 | 0.32 | 0.48 | 0.41 | 0.41 | NC(=O)c1cccnc1 [Nicotinamide, nicotinamide] | 
0 | 0.05 | 0.06 | 0.02 | 0 | 0 | 0.06 | 0.11 | 0.09 | 0.08 | 0.01 | 0 | NC(=O)c1ccc[n+]([C@@H]2O[C@H](CO)[C@@H](O)[C@H]2O)c1 [NR, 1-(β-D-Ribofuranosyl)-nicotinamide] | stability of the NR concentrations ([1]; NR-containing aqueous solution, ZrCl4 with phosphate-binding agent added concurrently): about 6 hours; decline of NR concentration ([2]; over 24 hours (steady-state), Example 3): ~10%; time the concentration of the product remains stable (decline of no more than 10%) ([2]; solution from degrading NAD^+ with phosphate-binding agent alone, absence of ZrCl4): at least 24 hours
1 | 0.66 | 0.32 | 0.05 | 0 | 1 | 0.86 | 0.62 | 0.55 | 0.38 | 0.22 | 0.2 | NC(=O)C1=CN([C@@H]2O[C@H](COP(=O)(O)OP(=O)(O)OC[C@H]3O[C@@H](n4cnc5c(N)ncnc54)[C@H](O)[C@@H]3O)[C@@H](O)[C@H]2O)C=CC1 [NAD^+, β-nicotinamide adenine dinucleotide] | 
 |  |  |  |  |  |  |  |  |  |  |  | NC(=O)c1ccc[n+]([C@@H]2O[C@H](CO)[C@@H](O)[C@H]2O)c1 [NR (Niagen ®), Nicotinamide riboside] | NR peak at 6.15 ppm in 1H-NMR versus DMF internal standard ([3]; after 24 hours): NR has degraded; Relative Concentration ([3]; time 0.5 hours): 1; Relative Concentration ([3]; time 3 hours): 0.62; Relative Concentration ([3]; time 6 hours): 0.48; Relative Concentration ([3]; time 24 hours): 0.02; Relative Concentration ([3]; time 48 hours): 0
